Measured values reported in the supplement of paper PMC10307832.

Key:
Assay in all cases: relative viability (nuclei count vs DMSO), 5 days (fraction); higher = more cells survive
Kobe2602 + Pemetrexed = compound: C1=CC(=CC=C1NC(=S)NNC2=C(C=C(C=C2[N+](=O)[O-])C(F)(F)F)[N+](=O)[O-])F [Kobe2602] + Nc1nc2[nH]cc(CCc3ccc(C(=O)N[C@@H](CCC(=O)O)C(=O)O)cc3)c2c(=O)[nH]1 [Pemetrexed] (partner 0.2 µM)
Outline: (§1)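 For relative viability, nuclei counts in treated wells were divided by those in vehicle wells. Lung cancer cell lines had been pin-tool dosed in 1536-well plates the day after seeding and cultured for 5 days, then fixed and stained in one step (final 0.05% Triton X-100, 1% formaldehyde, 1 ug/ml Hoechst) and imaged at 4×. Doses were one drug alone or a fixed anchor-drug dose plus five library-drug doses (not always all listed) in √10 steps, and values are duplicate-plate medians.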

Cabozantinib + AZD7762 = compound: COc1cc2nccc(Oc3ccc(NC(=O)C4(C(=O)Nc5ccc(F)cc5)CC4)cc3)c2cc1OC [Cabozantinib] + NC(=O)Nc1cc(-c2cccc(F)c2)sc1C(=O)N[C@H]1CCCNC1 [AZD7762] (partner 0.2 µM)
Outline: as §1

Zosuquidar + Foretinib = compound: O[C@@H](COc1cccc2ncccc12)CN1CCN([C@@H]2c3ccccc3[C@@H]3[C@H](c4ccccc42)C3(F)F)CC1 [Zosuquidar] + COc1cc2c(Oc3ccc(NC(=O)C4(C(=O)Nc5ccc(F)cc5)CC4)cc3F)ccnc2cc1OCCCN1CCOCC1 [Foretinib] (partner 0.25 µM)
Outline: as §1

Zosuquidar + Dasatinib = compound: O[C@@H](COc1cccc2ncccc12)CN1CCN([C@@H]2c3ccccc3[C@@H]3[C@H](c4ccccc42)C3(F)F)CC1 [Zosuquidar] + Cc1nc(Nc2ncc(C(=O)Nc3c(C)cccc3Cl)s2)cc(N2CCN(CCO)CC2)n1 [Dasatinib] (partner 0.075 µM)
Outline: as §1

Cell Line	relative viability (Kobe2602 + Pemetrexed; first compound 0.2 µM)	relative viability (Kobe2602 + Pemetrexed; first compound 0.6325 µM)	relative viability (Kobe2602 + Pemetrexed; first compound 2 µM)	relative viability (Kobe2602 + Pemetrexed; first compound 6.325 µM)	relative viability (Kobe2602 + Pemetrexed; first compound 20 µM)	relative viability (Cabozantinib + AZD7762; first compound 0.02 µM)	relative viability (Cabozantinib + AZD7762; first compound 0.06325 µM)	relative viability (Cabozantinib + AZD7762; first compound 0.2 µM)	relative viability (Cabozantinib + AZD7762; first compound 0.6325 µM)	relative viability (Cabozantinib + AZD7762; first compound 2 µM)	relative viability (Zosuquidar + Foretinib; first compound 0.01 µM)	relative viability (Zosuquidar + Foretinib; first compound 0.03162 µM)	relative viability (Zosuquidar + Foretinib; first compound 0.1 µM)	relative viability (Zosuquidar + Foretinib; first compound 0.3162 µM)	relative viability (Zosuquidar + Foretinib; first compound 1 µM)	relative viability (Zosuquidar + Dasatinib; first compound 0.01 µM)	relative viability (Zosuquidar + Dasatinib; first compound 0.03162 µM)	relative viability (Zosuquidar + Dasatinib; first compound 0.1 µM)	relative viability (Zosuquidar + Dasatinib; first compound 0.3162 µM)	relative viability (Zosuquidar + Dasatinib; first compound 1 µM)
SW 900	0.472	0.489	0.479	0.487	0.493	0.604	0.761	0.559	0.441	0.448	0.761	0.86	0.819	0.952	0.854	0.795	0.609	0.57	0.545	0.61
EPLC-272H	0.353	0.35	0.301	0.318	0.279	0.237	0.339	0.195	0.207	0.209	0.778	0.683	0.57	0.817	0.671	0.381	0.316	0.331	0.325	0.389
A-427	0.993	1.08	0.963	0.956	0.902	0.757	0.806	0.788	0.772	0.683	1.1	0.983	0.96	1.18	1.06	0.603	0.684	0.634	0.709	0.8
NCI-H1993	0.561	0.589	0.461	0.531	0.587	0.589	0.556	0.513	0.461	0.56	0.758	0.724	0.701	0.81	0.673	0.66	0.507	0.501	0.564	0.654
LK-2	0.259	0.188	0.279	0.248	0.328		0.659	0.426	0.434	0.408	1.32	1.03	1.3	1.05	1.23	0.31	0.41	0.291	0.297	0.314
NCI-H1915	0.489	0.498	0.458	0.503	0.45	0.769	0.721	0.725	0.804	0.678	0.951	1.11	1.07	1.12	1.13	0.311	0.305	0.308	0.337	0.283
RERF-LC-KJ	0.468	0.469	0.498	0.496	0.449	0.811	1.06	0.963	0.946	1.01	0.895	0.926	0.861	0.923	0.844	0.729	0.859	0.896	0.74	0.782
NCI-H358	0.196	0.208	0.17	0.166	0.178	0.457	0.715	0.499	0.544	0.62	0.654	0.615	0.719	0.598	0.702	0.144	0.172	0.142	0.183	0.153
NCI-H2085	0.944	0.882	0.959	0.904	0.901	1.08	1.06	0.766	0.768	0.727	0.855	1.02	0.837	1.01	0.981	0.247	0.234	0.19	0.243	0.228
NCI-H2405	1.07	1.21	0.888	1.1	1.08	0.687	0.918	0.769	0.68	0.655	1.05	1.06	0.946	1.05	1.04	0.208	0.174	0.208	0.228	0.215
201T	0.353	0.366	0.341	0.379	0.288	0.624	0.736	0.591	0.675	0.695	1.16	1.17	0.935	1.04	1.19	0.611	0.551	0.526	0.632	0.581
NCI-H1755	0.514	0.419	0.447	0.391	0.398	0.449	0.494	0.471	0.39	0.547	0.908	0.894	0.841	0.959	0.932	0.401	0.383	0.375	0.451	0.415
NCI-H650	0.816	1.04	0.867	1.05	0.889	0.959	1.24	0.938	1.04	0.982	1.03	0.984	0.908	1.15	0.939	0.442	0.344	0.373	0.517	0.455
NCI-H1651	0.526	0.51	0.569	0.573	0.731	0.391	0.544	0.444	0.438	0.39	0.763	0.845	0.703	0.863	0.778	0.357	0.324	0.463	0.356	0.381
NCI-H1437	0.303	0.317	0.313	0.298	0.295	1.16	1.18	1.19	1.21	1.04	1.28	1.24	1.16	1.3	1.31	0.404	0.398	0.457	0.715	0.346
NCI-H1975	0.271	0.306	0.265	0.294	0.286	0.673	0.828	0.683	0.678	0.682	0.959	0.832	1.02	0.952	1.02	0.335	0.313	0.433	0.374	0.352

Cell Line	relative viability (Kobe2602 + Pemetrexed; first compound 0.2 µM)	relative viability (Kobe2602 + Pemetrexed; first compound 0.6325 µM)	relative viability (Kobe2602 + Pemetrexed; first compound 2 µM)	relative viability (Kobe2602 + Pemetrexed; first compound 6.325 µM)	relative viability (Kobe2602 + Pemetrexed; first compound 20 µM)	relative viability (Cabozantinib + AZD7762; first compound 0.02 µM)	relative viability (Cabozantinib + AZD7762; first compound 0.06325 µM)	relative viability (Cabozantinib + AZD7762; first compound 0.2 µM)	relative viability (Cabozantinib + AZD7762; first compound 0.6325 µM)	relative viability (Cabozantinib + AZD7762; first compound 2 µM)	relative viability (Zosuquidar + Foretinib; first compound 0.01 µM)	relative viability (Zosuquidar + Foretinib; first compound 0.03162 µM)	relative viability (Zosuquidar + Foretinib; first compound 0.1 µM)	relative viability (Zosuquidar + Foretinib; first compound 0.3162 µM)	relative viability (Zosuquidar + Foretinib; first compound 1 µM)	relative viability (Zosuquidar + Dasatinib; first compound 0.01 µM)	relative viability (Zosuquidar + Dasatinib; first compound 0.03162 µM)	relative viability (Zosuquidar + Dasatinib; first compound 0.1 µM)	relative viability (Zosuquidar + Dasatinib; first compound 0.3162 µM)	relative viability (Zosuquidar + Dasatinib; first compound 1 µM)
BEN	0.736	0.803	0.724	0.846	0.98	0.624	0.891	0.746	0.773	0.59	0.724	0.55	0.592	0.61	0.524	0.31	0.281	0.299	0.314	0.258
NCI-H460		0.0647	0.0722	0.0653	0.0677	0.633	0.801	0.68	0.623	0.63	0.922	0.987	0.987	0.969	0.952	0.428	0.364	0.453	0.855	0.485
NCI-H1944	0.632	0.658	0.738	0.626	0.62	0.492	0.552	0.598	0.55	0.69	0.774	0.862	0.898	0.883	0.824	0.206	0.159	0.187	0.244	0.229
HOP-62	0.43	0.336	0.312	0.323	0.316	0.629	0.798	0.633	0.441	0.428	1.09	1.25	1.01	1.1	1.08	0.702	0.528	0.594	0.679	0.633
HCC-366	0.157	0.179	0.16	0.146	0.328	0.34	0.358	0.21	0.209	0.275	0.922	0.856	0.999	0.96	0.869	0.608	0.468	0.496	0.767	0.704
NCI-H3122	0.189	0.191	0.198	0.187	0.208	1.04	1.05	1.03	0.941	1.03	0.891	0.922	0.909	0.934	0.955	0.666	0.653	0.787	0.863	0.914
NCI-H1355	1.06	1.07	0.992	0.983	0.968	0.703	0.919	0.83	0.754	0.746	0.951	0.989	0.9	1.02	0.923	0.681	0.726	0.623	0.85	0.711
NCI-H2170	0.293	0.26	0.242	0.295	0.263	0.871	0.937	0.779	0.864	1.01	0.979	1.02	0.993	1.02	1.02	0.464	0.661	0.636	0.767	0.58
NCI-H1734	0.445	0.419	0.422	0.418	0.398	0.522	0.655	0.563	0.575	0.544	0.816	0.868	0.775	0.938	0.817	0.41	0.408	0.455	0.571	0.531
LXF-289	0.871	0.896	0.88	0.861	0.896	1.15	1.07	1.13	1.09	1.06	0.956	1.02	0.94	1.02	0.968	0.217	0.125	0.237	0.301	0.182
NCI-H2087	0.649	0.653	0.584	0.698	0.649	1.19	1.44	1.18	1.35	1.35	1		0.992	1.21	1.12	0.773		0.668	0.91	0.919
HCC-78	0.891	0.923	0.699	0.868	0.844		0.699	0.466	0.46	0.39	0.549	0.548		0.571	0.606	0.553	0.386		0.331	0.254
NCI-H1793	0.732	1.04	0.781	0.903	0.875	0.413	0.625		0.579	0.17	0.747	0.914		0.896	0.641	0.375	0.3		0.489	0.488
H3255	0.549	0.544	0.57	0.629	0.584	0.938	1.14		0.911	0.923	0.957	0.607	0.621	0.938	0.738	0.346	0.273	0.341	0.727	0.303
HCC-15	0.238	0.216	0.223	0.229	0.211	1.22	1.27	1.13	1.26	1.19	1.08	1.08	0.864	1.04	1.09	0.559	0.581	0.592	0.663	0.612
PC-14	0.15	0.137	0.134	0.15	0.14	0.323	0.415		0.406	0.354	0.99	0.983	0.952	0.997	0.952	0.271	0.223	0.341	0.303	0.284
